In the supplement of paper PMC11061612:

Legend:
Test in all cases: Bliss excess, mean over the matrix (fraction); higher = more synergy
[1] = tested on: A4-Fuk (B-Lymphoblastic Leukemia)
Summary of the method: (§1)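 Bliss excess equals the observed combination effect minus the expected value EA + EB − EA·EB, where EA and EB are the effects of each agent alone. Combination Emax is the second-highest inhibition within the matrix. Inhibition was scaled from CellTiter-Glo 2.0 luminescence, with 0 set by vehicle wells and 1 by blank wells, after 72 hours of two-drug dosing of cells plated in 1536-well plates.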

[2] = tested on: COLO-668 (Small Cell Lung Carcinoma)
Summary of the method: as §1

COLO-679 (Melanoma) = tested on: COLO-679 (Melanoma)
Summary of the method: as §1

[3] = tested on: EJM (Plasma Cell Myeloma)
Summary of the method: as §1

[4] = tested on: G-401 (Other Solid Carcinomas)
Summary of the method: as §1

[5] = tested on: HCC1500 (Breast Carcinoma)
Summary of the method: as §1

[6] = tested on: HCC1937 (Breast Carcinoma)
Summary of the method: as §1

Hey (Ovarian Carcinoma) = tested on: Hey (Ovarian Carcinoma)
Summary of the method: as §1

[7] = tested on: KGN (Other Solid Carcinomas)
Summary of the method: as §1

[8] = tested on: KMRC-1 (Kidney Carcinoma)
Summary of the method: as §1

[9] = tested on: ML-2 (Acute Myeloid Leukemia)
Summary of the method: as §1

[10] = tested on: MOLT-4 (T-Lymphoblastic Leukemia)
Summary of the method: as §1

[11] = tested on: MV-4-11 (Acute Myeloid Leukemia)
Summary of the method: as §1

[12] = tested on: Mo-T (Other Blood Carcinomas)
Summary of the method: as §1

[13] = tested on: NCI-H1092 (Small Cell Lung Carcinoma)
Summary of the method: as §1

[14] = tested on: NCI-H1355 (Lung Adenocarcinoma)
Summary of the method: as §1

[15] = tested on: NCI-H1993 (Lung Adenocarcinoma)
Summary of the method: as §1

[16] = tested on: SK-LU-1 (Lung Adenocarcinoma)
Summary of the method: as §1

[17] = tested on: SKN (Other Solid Carcinomas)
Summary of the method: as §1

[18] = tested on: SNU-387 (Hepatocellular Carcinoma)
Summary of the method: as §1

Row | SMILES | Bliss excess [1] | Bliss excess [2] | Bliss excess (COLO-679 (Melanoma)) | Bliss excess [3] | Bliss excess [4] | Bliss excess [5] | Bliss excess [6] | Bliss excess (Hey (Ovarian Carcinoma)) | Bliss excess [7] | Bliss excess [8] | Bliss excess [9] | Bliss excess [10] | Bliss excess [11] | Bliss excess [12] | Bliss excess [13] | Bliss excess [14] | Bliss excess [15] | Bliss excess [16] | Bliss excess [17] | Bliss excess [18]
1 | COc1nnc2ccc(N3CCC(c4ccc(OCCN5CCN(C)C(=O)[C@H]5C)cc4)CC3)nn12 [AZD5153] + CC1(C)CCC(CN2CCN(c3ccc(C(=O)NS(=O)(=O)c4ccc(NCC5CCOCC5)c([N+](=O)[O-])c4)c(Oc4cnc5[nH]ccc5c4)c3)CC2)=C(c2ccc(Cl)cc2)C1 [Venetoclax] (first compound max 1 µM, 7x7, partner max 1 µM) | -0.0678 | 0.0229 | -0.0818 | -0.0381 | -0.0959 | -0.04 | -0.0815 | -0.0568 | -0.0165 | -0.063 | 0.0122 | -0.0198 | 0.0014 | -0.0447 | 0.0191 | -0.0243 | -0.0456 | -0.118 | -0.0295 | -0.0699
2 | COc1nnc2ccc(N3CCC(c4ccc(OCCN5CCN(C)C(=O)[C@H]5C)cc4)CC3)nn12 [AZD5153] + CCN(CCO)CCCOc1ccc2c(Nc3cc(CC(=O)Nc4cccc(F)c4)[nH]n3)ncnc2c1 [AZD2811] (first compound max 1 µM, 7x7, partner max 1 µM) | -0.0025 | -0.0268 | -0.0181 | 0.0224 | -0.0625 | 0.0233 | -0.0581 | -0.0417 | -0.0951 | -0.0437 | -0.0355 | 0.0277 | -0.0185 | 0.0014 | 0.0499 | 0.0143 | -0.0401 | -0.0549 | -0.0711 | -0.0837
3 | COc1nnc2ccc(N3CCC(c4ccc(OCCN5CCN(C)C(=O)[C@H]5C)cc4)CC3)nn12 [AZD5153] + C[C@@H]1COCCN1C2=NC(=NC(=C2)C3(CC3)[S@](=N)(=O)C)C4=C5C=CNC5=NC=C4 [AZD6738] (first compound max 1 µM, 7x7, partner max 10 µM) | -0.117 | 0.0137 | 0.0003 | 0.0187 | -0.0078 | 0.0792 | -0.0516 | -0.0048 | -0.0865 | 0.0195 | -0.0116 | 0.0394 | 0.0009 | -0.0184 | 0.0493 | -0.006 | -0.0462 | 0.0147 | 0.0365 | -0.0501
4 | COc1nnc2ccc(N3CCC(c4ccc(OCCN5CCN(C)C(=O)[C@H]5C)cc4)CC3)nn12 [AZD5153] + Cc1c2c(nn1C)CSCc1cc(n(C)n1)CSc1cc(c3ccccc3c1)OCCCc1c(C(=O)O)n(C)c3c-2c(Cl)ccc13 [AZD5991] (first compound max 1 µM, 7x7, partner max 1 µM) | -0.044 | 0.0265 | -0.0101 | 0.0564 | 0.0312 | 0.052 | -0.0426 | -0.0231 | -0.0364 | -0.0482 | 0.0582 | 0.0492 | -0.0001 | -0.0592 | 0.003 | -0.0274 | -0.0106 | -0.061 | -0.058 | -0.0082
5 | COc1nnc2ccc(N3CCC(c4ccc(OCCN5CCN(C)C(=O)[C@H]5C)cc4)CC3)nn12 [AZD5153] + Cn1cnc2c(F)c(Nc3ccc(Br)cc3Cl)c(C(=O)NOCCO)cc21 [Selumetinib] (first compound max 1 µM, 7x7, partner max 10 µM) | -0.0175 | 0.236 | -0.004 | 0.0207 | -0.0761 | 0.0011 | -0.0523 | -0.0092 | -0.002 | -0.0365 | 0.075 | -0.0161 | 0.0309 | -0.0656 | -0.0592 | 0.0212 | -0.0228 | 0.0022 | -0.0084 | 0.0012
6 | Cc1c2c(nn1C)CSCc1cc(n(C)n1)CSc1cc(c3ccccc3c1)OCCCc1c(C(=O)O)n(C)c3c-2c(Cl)ccc13 [AZD5991] + C1CN(CCC1(C(=O)N[C@@H](CCO)C2=CC=C(C=C2)Cl)N)C3=NC=NC4=C3C=CN4 [Capivasertib] (first compound max 1 µM, 7x7, partner max 3 µM) | -0.0011 | 0.0516 | -0.0179 | 0.0504 | 0.0486 | 0.0467 | -0.0108 | -0.0349 | 0.0051 | -0.0076 | -0.0159 | 0.0964 | -0.0089 | -0.0046 | 0.0204 | -0.0016 | 0.0523 | -0.0042 | -0.024 | 0.0124
7 | Cc1c2c(nn1C)CSCc1cc(n(C)n1)CSc1cc(c3ccccc3c1)OCCCc1c(C(=O)O)n(C)c3c-2c(Cl)ccc13 [AZD5991] + C=CCn1c(=O)c2cnc(Nc3ccc(N4CCN(C)CC4)cc3)nc2n1-c1cccc(C(C)(C)O)n1 [AZD1775] (first compound max 1 µM, partner max 1 µM) | 0.0204 | -0.0643 | 0.0628 | 0.0357 | 0.0023 | 0.0305 | -0.0157 | -0.0325 | -0.002 | 0.0071 | -0.0342 | -0.0043 | -0.0407 | 0.0127 | -0.048 | 0.0071 | 0.0026 | -0.0082 | -0.0269 | -0.0632
